Data published in patent US8586125B2, “Thermal treatment of an implantable medical device” (Advanced Cardiovascular Systems, Inc., priority 1999, dated 2013).
Values joined by “and” are separate entries in the source; they are usually repeats but may differ in a detail not shown here. Equal values may be shown once. Read-outs that look alike come from different tables or passages of the source. Values belong to the molecule of their own block, whether it stands above or below them. Starred links: 1 amine or outer side, 2 acyl side, 3 side chain; linkers in the order of their positions; H or OH if unused. Positions of bridges follow the written chain, without caps; N, C: chain ends. Non-standard residues stand in square brackets, D forms with d. Residues, ends and D or L forms follow the SMILES beside them. Chains are numbered I, II in the order given. Actinocin(9to1) = Cc1c2oc3c(C)ccc(C(=O)[*:1])c3nc-2c(C(=O)[*:2])c(N)c1=O; NMeV = CN[C@H](C(=O)O)C(C)C; Sar = CNCC(=O)O

Experiments:
[1] = 24 hour elution of vinblastine from EVOH coated stents in phosphated saline solution, HPLC; type: physicochemical; settings: for Total microgram Released / microgram Release per Hour / microgram Released: Unsterilized stent
Experimental: Multi-Link™ stents were cleaned by placement in an ultrasonic bath of isopropyl alcohol solution for 10 minutes. The stents were dried and plasma cleaned in a plasma chamber. An EVOH solution was made with 1 gram of EVOH and 7 grams of DMSO, making an EVOH:DMSO ratio of 1:7. Vinblastine was added to the 1:7 EVOH:DMSO solution. Vinblastine constituted 2.5% by weight of the total weight of the solution. The solution was vortexed and placed in a tube. The cleaned Multi-Link™ stents were attached to mandrel wires and dipped into the solution. The coated stents were passed over a hot plate, for about 3-5 seconds, with a temperature setting of about 60° C. The coated stents were cured for 6 hours in an air box then placed in a vacuum oven at 60° C. for 24 hours. The above process was repeated twice, having a total of three layers. The average weight of the coating was 0.00005 gram, with an estimated vinblastine concentration of 12 microgram per stent. Some of the stents were sterilized by electron beam radiation. The sterilized and unsterilized vinblastine coated stents were tested for a 24 hour elution period by placing one sterilized and one unsterilized stent in 5 ml of phosphated saline solution (pH 7.4) at room temperature with rotational motion. The amount of vinblastine eluted was evaluated by High Performance Liquid Chromatography (HPLC) analysis. The results of this test are given below and plotted in FIG. 7.

[2] = test system: Medial smooth muscle cells (SMC); assay: Inhibition of SMC proliferation, thymidine incorporation; type: cell-based; settings: Rattus norvegicus, read-out: IC50 (concentration at which 50% of the cells stop proliferating)
Experimental: Medial smooth muscle cells (SMC) were isolated from rat aorta and cultured according to explant methods known to one of ordinary skill in the art. Cells were harvested via trypsinization and subcultivated. Cells were identified as vascular SMC through their characteristic hill-and-valley growth pattern as well as indirect immunofluorescence with monoclonal anti SMC α-actin. Studies were performed with cells at passage 3-4. SMC monolayers were established on 24 well culture dishes, scrape wounded and treated with actinomycin D, mytomycin and docetaxel. The cells were exposed to the drug solution of different concentrations for 2 hours and then washed with buffered saline solution. The proliferation of the cells was quantified by standard technique of thymidine incorporation.
The IC50 (concentration at which 50% of the cells stop proliferating) of actimomycin D was 10^−9M as compared to 5×10^−5M for mitomycin and 10^−6M for docetaxel.

[3] = test system: Porcine Coronary Artery Model; assay: Reduction in restenosis in the porcine coronary artery model, drug delivered with microporous balloon catheter; type: in vivo, Domestic swine; settings: for Percent Diameter Stenosis (QCA): 28-day endpoint; for Percent Stenosis (IEL area-lumen area)/IEL area / Residual Lumen (Lumen area)/IEL area: histomorphometric
Experimental: Porcine coronary models were used to assess the degree of the inhibition of neointimal formation in the coronary arteries of a porcine stent injury model by actinomycin D, delivered with a microporous balloon catheter (1×10^6 pores/mm^2 with sizes ranging from 0.2-0.8 micron).
The preclinical animal testing was performed in accordance with the NIH Guide for Care and Use of Laboratory Animals. Domestic swine were utilized to evaluate effect of the drug on the inhibition of the neointimal formation. Each testing procedure, excluding the angiographic analysis at the follow-up endpoints, was conducted using sterile techniques. During the study procedure, the activated clotting time (ACT) was monitored regularly to ensure appropriate anticoagulation. Base line blood samples were collected for each animal before initiation of the procedure. Quantitative coronary angiographic analysis (QCA) and intravascular ultrasound (IVUS) analysis was used for vessel size assessment.
The vessels at the sites of the delivery were denuded by inflation of the PTCA balloons to 1:1 balloon to artery ratio and moving the balloons back and forth 5 times. The drug was delivered to the denuded sites at 3.5 atm (3.61 Kg/sq cm) for 2 minutes using the microporous balloon catheters before stent deployment. The average volume of delivery was about 3.3+/−1.2 ml. Following drug delivery, stents were deployed at the delivery site such that final stent to artery ratio was 1.1:1.
QCA and IVUS analyses were used for stent deployment guidance. Pre-stenting IVUS measurements of the lumen size at the targeted vessel sites were performed for determination of the balloon (size) inflation pressure. Quantitative analysis of the stented coronary arteries to compare pre-stenting, post-stenting, follow-up minimal luminal diameters, stent recoil, and balloon/stent to artery ratio were performed. Following stent implantation and final angiogram, all devices were withdrawn and the wounds closed; the animals were allowed to recover from anesthesia as managed by the attending veterinarian or animal care professionals at the research center.
Upon return to the research laboratory at the 28-day endpoint, angiographic assessments were performed. Coronary artery blood flow was assessed and the stented vessels were evaluated to determine minimal lumen diameter. The animals were euthanized following this procedure at the endpoint. Following euthanasia, the hearts were pressure perfusion fixed with formalin and prepared for histological analysis, encompassing light microscopy, and morphometry. Morphometric analysis of the stented arteries included assessment of the position of the stent struts and determination of vessel/lumen areas, percent (%) stenosis, injury scores, intimal and medial areas and intima/media ratios. Percent stenosis is quantitated by the following equation: 100(IEL area−lumen area)/IEL area
where IEL is the internal elastic lamia.
The control group of animals received delivery of water instead of the drug. The test group of animals received actinomycin D in two different concentration of 10^−5M and 10^−4M. […] FIGS. 9A and 9B illustrate sample pictures of the histology slides of the coronary vessels from the control and the Dose 1 group, respectively.

[4] = test system: porcine coronary arteries; assay: Positive remodeling: actinomycin D/EVOH coated stents in porcine coronary arteries, 28 days; type: in vivo
Excerpt: In vivo data is provided illustrated positive remodeling caused by the application of actinomycin D. Stents coated with EVOH impregnated with actinomycin D and a control group of stents coated with EVOH free from actinomycin D were implanted in porcine coronary arteries. The animals were sacrificed at the end of 28 days. […] The index of remodeling was 1.076 (8.54/7.94).
FIGS. 10A and 10B illustrate sample pictures of the histology slides of the coronary vessels from the control group 64 RCA (Right Coronary […]) and the actinomycin D loaded stent group 68 LAD (Left Anterior Descending), respectively. The stent used was an Advanced Cardiovascular Systems Multi-Link Duet™ (stainless steel). As is illustrated by FIG. 10B, the positive remodeling of EEL 80, caused by the application of actinomycin D, creates a gap between stent struts 82 and EEL 80. Thrombus deposits, illustrated by reference number 84, are formed in the gap over time. The use of a self-expandable stent eliminates the formation of the gap as the stent self-expands in response to the positive remodeling of IEL. Thrombus deposits can be, accordingly, eliminated.
Actinomycin D induces the positive remodeling of the vessel walls, more particularly positive remodeling of the external elastic lamina (EEL) of a blood vessel wall. Positive remodeling is generally defined as the ability of the vessel walls to structurally adapt, by increasing in lumen size, to chronic stimuli. A positively remodeled lumen wall has a greater diameter or size as compared to a lumen wall which has not been subjected to the remodeling effect. Accordingly, the flow of blood through the remodeled site is increased—flow which would have otherwise been reduced because of, for example, the presence of plaque build-up or migration and proliferation of cells. The index of remodeling is defined by the ratio of the area circumscribed by the EEL of the lesion site to the area circumscribed by the EEL of a reference site. As a result of the positive remodeling of the EEL, the internal elastic lamina (IEL), in response, can also increases in area or diameter. Actinomycin D, or analogs or derivative thereof, not only can inhibit abnormal or inappropriate migration and/or proliferation of smooth muscle cells, which can lead to restenosis, but can also induce positive remodeling of the blood vessel walls. Thus the widening of the diseased region becomes more pronounced.

[5] = Sterilized stent, Time 0.5 Hours
[6] = Sterilized stent, Time 24 Hours
[7] = average of vessel sections, 28 days
[8] = individual vessel sections (ID # animal, artery, d/m/p), 28 days
[9] = 2 hours drug exposure, scrape wounded SMC monolayers, passage 3-4

- μg Release ([1]; Sterilized (electron beam) stent, Time 0 Hours): 0 µg
- Total μg Released ([1]; Sterilized stent, Time 0 Hours): 0 µg
- μg Release per Hour ([1]; Sterilized stent, Time 0 Hours): 0 μg per Hour
- Total μg Released [1, 5]: 2.14 µg
- μg Release [1, 5]: 2.14 µg
- μg Release per Hour [1, 5]: 4.28 μg per Hour
- Total μg Released ([1]; Sterilized stent, Time 3 Hours): 3.84 µg
- μg Release ([1]; Sterilized stent, Time 3 Hours): 1.7 µg
- μg Release per Hour ([1]; Sterilized stent, Time 3 Hours): 0.68 μg per Hour
- Total μg Released ([1]; Sterilized stent, Time 4 Hours): 4.12 µg
- μg Release ([1]; Sterilized stent, Time 4 Hours): 0.28 µg
- μg Release per Hour ([1]; Sterilized stent, Time 4 Hours): 0.28 μg per Hour
- Total μg Released ([1]; Sterilized stent, Time 6 Hours): 4.38 µg
- μg Release ([1]; Sterilized stent, Time 6 Hours): 0.26 µg
- μg Release per Hour ([1]; Sterilized stent, Time 6 Hours): 0.13 μg per Hour
- Total μg Released [1, 6]: 6.43 µg
- μg Release [1, 6]: 2.05 µg
- μg Release per Hour [1, 6]: 0.11 μg per Hour
- Total microgram Released ([1]; Time 0 Hours): 0 microgram
- microgram Release per Hour ([1]; Time 0 Hours): 0 microgram per Hour
- microgram Released ([1]; Time 0 Hours, pH 7.4, room temperature): 0 microgram
- Total microgram Released ([1]; Time 0.5 Hours): 2.12 microgram
- microgram Release per Hour ([1]; Time 0.5 Hours): 4.24 microgram per Hour
- microgram Released ([1]; Time 0.5 Hours): 2.12 microgram
- Total microgram Released ([1]; Time 3 Hours): 4.03 microgram
- microgram Release per Hour ([1]; Time 3 Hours): 0.76 microgram per Hour
- microgram Released ([1]; Time 3 Hours): 1.91 microgram
- Total microgram Released ([1]; Time 4 Hours): 4.30 microgram
- microgram Release per Hour ([1]; Time 4 Hours): 0.27 microgram per Hour
- microgram Released ([1]; Time 4 Hours): 0.27 microgram
- Total microgram Released ([1]; Time 6 Hours): 4.68 microgram
- microgram Release per Hour ([1]; Time 6 Hours): 0.19 microgram per Hour
- microgram Released ([1]; Time 6 Hours): 0.38 microgram
- Total microgram Released ([1]; Time 24 Hours): 6.38 microgram
- microgram Release per Hour ([1]; Time 24 Hours): 0.09 microgram per Hour
- microgram Released ([1]; Time 24 Hours): 1.7 microgram
Compound: CC[C@]1(O)C[C@@H]2CN(CCc3c([nH]c4ccccc34)[C@@](C(=O)OC)(c3cc4c(cc3OC)N(C)[C@H]3[C@@](O)(C(=O)OC)[C@H](OC(C)=O)[C@]5(CC)C=CCN6CC[C@]43[C@@H]65)C2)C1 [Vinblastine]

Compound: Cc1c2oc3c(C)ccc(C(=O)N[C@@H]4C(=O)N[C@H](C(C)C)C(=O)N5CCC[C@H]5C(=O)N(C)CC(=O)N(C)[C@@H](C(C)C)C(=O)O[C@@H]4C)c3nc-2c(C(=O)N[C@@H]2C(=O)N[C@H](C(C)C)C(=O)N3CCC[C@H]3C(=O)N(C)CC(=O)N(C)[C@@H](C(C)C)C(=O)O[C@@H]2C)c(N)c1=O [actinomycin D] (I: T[dV]P[Sar][NMeV] / II: T[dV]P[Sar][NMeV]; ester I:1-I:C, II:1-II:C; linker I:N-II:N via Actinocin(9to1))
- IC50 ([2]; 2 h): 0.001 µM
- Percent Diameter Stenosis (QCA) ([3]; DOSE 1 1E−05M (n = 10)): 36.8 +/− 9.7%
- Percent Diameter Stenosis (QCA) ([3]; DOSE 2 1E−04M (n = 7)): 32.3+/−11.7%
- Percent Stenosis (IEL area-lumen area)/IEL area ([3]; DOSE 1 1E−05M (n = 30)): 51.8 +/− 13.8%
- Residual Lumen (Lumen area)/IEL area ([3]; DOSE 1 1E−05M (n = 30)): 0.49 +/− 0.14
- Percent Stenosis (IEL area-lumen area)/IEL area ([3]; DOSE 2 1E−04M (n = 21)): 54.1 +/− 11.7%
- Residual Lumen (Lumen area)/IEL area ([3]; DOSE 2 1E−04M (n = 21)): 0.46 +/− 0.08
- AVG % EEL growth ([4]; ActD vs EVOH): 7.486%
- AVG % IEL growth ([4]; ActD vs EVOH): 13.18%
- index of remodeling ([4]; EEL area drug coated / EVOH control (8.54/7.94), 28 days): 1.076
- EEL Area AVG [4, 7]: 8.5425 mm^2
- IEL Area AVG [4, 7]: 7.4727 mm2
- EEL Area [4, 8]: 9.2545 mm^2 and 9.2515 mm^2 and 8.7854 mm^2 and 9.5164 mm^2 and 9.1504 mm^2 and 9.6679 mm^2 and 9.1237 mm^2 and 9.9849 mm^2 and 9.4765 mm^2 and 7.4424 mm^2 and 9.1462 mm^2 and 8.9504 mm^2 and 8.9117 mm^2 and 8.7533 mm^2 and 7.3249 mm^2 and 7.1061 mm^2 and 8.5830 mm^2 and 7.4498 mm^2 and 8.2509 mm^2 and 7.7342 mm^2 and 7.9207 mm^2 and 6.9926 mm^2 and 8.3883 mm^2 and 7.8546 mm^2
- IEL Area [4, 8]: 8.3785 mm2 and 8.5819 mm2 and 8.0964 mm2 and 8.6879 mm2 and 8.0914 mm2 and 8.7181 mm2 and 8.0273 mm2 and 8.5222 mm2 and 8.3796 mm2 and 6.4219 mm2 and 7.7757 mm2 and 7.5392 mm2 and 7.6573 mm2 and 6.9749 mm2 and 6.2815 mm2 and 5.9760 mm2 and 7.6195 mm2 and 6.3785 mm2 and 7.5206 mm2 and 6.9992 mm2 and 6.9632 mm2 and 6.0418 mm2 and 7.4794 mm2 and 6.2324 mm2

Compound: CC(=O)O[C@@]12CO[C@@H]1C[C@H](O)[C@@]1(C)C(=O)[C@H](O)C3=C(C)[C@@H](OC(=O)[C@H](O)[C@@H](NC(=O)OC(C)(C)C)c4ccccc4)C[C@@](O)([C@@H](OC(=O)c4ccccc4)[C@H]21)C3(C)C [docetaxel]
- IC50 [2, 9]: 1 µM

Compound: CO[C@@]12[C@H](COC(N)=O)C3=C(C(=O)C(C)=C(N)C3=O)N1C[C@@H]1N[C@@H]12 [mitomycin]
- IC50 [2, 9]: 50 µM
